{"source": "ChEMBL document CHEMBL1132989", "about": "“A novel macromolecular prodrug concept exploiting endogenous serum albumin as a drug carrier for cancer chemotherapy” (2000)", "assay": "Dose required for antitumor efficacy tested in vivo against primary kidney tumors in murine renal carcinoma (RENCA)", "format": "functional, Mus musculus", "data": [{"smiles": "COc1cccc2c1C(=O)c1c(O)c3c(c(O)c1C2=O)C[C@@](O)(/C(CO)=N/NC(=O)Cc1ccc(N2C(=O)C=CC2=O)cc1)C[C@@H]3OC1CC(C)C(O)C(N)C1.Cl", "note": "(stereo partly specified)", "values": [{"measurement": "Dose", "result": 80, "unit": "mM/kg"}]}]}
